# “And” between values parts separate entries of the source, which are not always exact repeats. Equal entries are not always repeated.
# Columns and labels:
# [1] = tested on: Mycobacterium tuberculosis; assay: Cornell M. t heat shock assay; type: functional, organism-based; conditions: for IC50: Mycobacterium tuberculosis
# [2] = microbe, parasite or virus in culture; conditions: Mycobacterium tuberculosis, 72 h, read-out: pIC50 (converted)
# [3] = microbe, parasite or virus in culture; conditions: Mycobacterium tuberculosis, 96 h, read-out: pIC50 (converted)
SMILES,IC50 [1] [µM],other results
Cc1cc(O)cc(=O)n1CCCC(=O)Nc1n[nH]c2cccc(F)c12,> 100,
Cc1cccc(CNC(Cc2ccsc2)c2nccs2)n1 (stereo not drawn),49.9,
COc1ccc(CNC(Cc2ccsc2)c2ccc(C)cn2)cc1OC (stereo not drawn),25.6,
c1nnc(Nc2cncc(C3CCCN3CC3CC3)n2)s1 (stereo not drawn),29.8,
CC(C)Oc1ncccc1CNC(=O)c1ccccn1,> 100,
CC(C)Cc1ncc2c(n1)CN(c1nccc(NC(C)C)n1)C2,34.5,IC50 [2]: 23.9 µM; IC50 [3]: 15.5 µM
CC1CCCN(c2ncc(-c3ccccc3F)c(-c3nccn3C)n2)C1 (stereo not drawn),,pIC50 [1]: 4.289 and 4.7
COc1cc(CNC(c2ccccc2)c2nccn2C)cc(OC)c1 (stereo not drawn),2.41,
CCN1CCN(c2ccc(NC(C)c3nc(C(C)C)no3)c(C)c2)CC1 (stereo not drawn),> 100,
Cc1ccc(CNC(c2cccc(F)c2)c2nccn2C)o1 (stereo not drawn),> 100,
CCCNC(=O)NC(=O)CNC(C)(C)c1ccc2c(c1)OCCO2,23.5,IC50 [2]: 19 µM; IC50 [3]: 13.3 µM
O=C(NCCc1cccc(F)c1)C1(n2cnnn2)CCCCC1,11.1,IC50 [2]: 46.9 µM; IC50 [3]: 43.2 µM
CC1c2cc(F)ccc2CCN1C(=O)c1[nH]c(=O)[nH]c(=O)c1N (stereo not drawn),66.9,
COc1cc(C(=O)Nc2nc(C)no2)ccc1OC(F)F,41.3,pIC50 [1]: 4.585
NC(=O)NC(=O)CCN1CCN(c2nccs2)CC1,35.1,
Cc1cnn(CC2CCCN2Cc2nc(C)c3ccccc3n2)c1 (stereo not drawn),34.9,
Cc1ccc(C2CCCN2S(=O)(=O)N(C)CCc2ccccn2)o1 (stereo not drawn),> 100,
CCNC(=O)[C@@H]1C[C@H](NC(=O)Cn2ccnc2)CN1Cc1ccsc1,> 100,
CNc1cc(C2CN(Cc3scnc3C)CCO2)nc(C)n1 (stereo not drawn),> 100,
COc1ccccc1C(NCc1ccc(SC)cc1)c1nccn1C (stereo not drawn),48.8,
CCOC(=O)C(C)Nc1cccc(COCc2ccco2)c1 (stereo not drawn),> 100,
Cc1cc(C)cc(CNC(c2ccccc2)c2nccn2C)c1 (stereo not drawn),4.29,
Cc1cccc(CN2CCCC2c2cncc(Nc3nncs3)n2)c1 (stereo not drawn),17.1,
COc1cccc2sc(N3CCN(C(=O)c4cc(C)on4)CC3)nc12,> 100,

SMILES,IC50 [1] [µM],other results
O=c1[nH]c(CCN2CCCC2Cn2cccn2)nc2ccccc12 (stereo not drawn),47.5,
Cc1nc(-c2ccccc2)cc2nn(CC(N)=O)c(=O)n12,> 100,
Oc1cc(C2CCCN(Cc3cccs3)C2)nc(-c2ccccn2)n1 (stereo not drawn),,pIC50 [1]: 4.835 and 5.179
O=C(Nc1nc2c(s1)CNCC2)NC1CCCC1,> 100,
CCOc1ncccc1NC(=O)N1CCN(c2ccc(O)cc2)CC1,> 100,
CNC(=O)C1(C)CN(Cc2cn(C)c3ccc(F)cc23)CCO1 (stereo not drawn),> 100,
CC1c2ccc(F)cc2CCN1C(=O)c1[nH]c(=O)[nH]c(=O)c1N (stereo not drawn),> 100,
COc1cc(-c2cc(NC3CCCC3)nc3[nH]ccc23)nc(N)n1,2.7,
COc1cc(C(=O)Nc2nc(C)no2)cc(Cl)c1OC,24.8,pIC50 [1]: 4.499
CCC(NC(=O)Nc1ccc(OC)c(C)c1)c1ccncc1 (stereo not drawn),49.9,
CCCNC(=O)C(C)n1nc(-c2ccc(C)o2)cc(N)c1=O (stereo not drawn),> 100,
CC(C)Cn1nc(-c2ccc(C(=O)O)cc2)cc1-c1ccc(F)cc1,97.1,
COCC(=O)N1CCCC1c1cccc(Nc2ncc(C)s2)n1 (stereo not drawn),> 100,
Cc1ccc(O)c(CN(CCCn2ccnc2)Cc2ccc(C)s2)c1.O=C(O)CC(O)(CC(=O)O)C(=O)O,42.9,pIC50 [1]: 4.427
O=C(c1cncs1)N1CCCC1c1ccn[nH]1 (stereo not drawn),> 100,
O=c1[nH]c(CCN2CCCC2Cn2cncn2)nc2ccccc12 (stereo not drawn),34.3,
CC(C)c1ncc2c(n1)CN(CCCc1nc3ccccc3o1)CC2,> 100,
Cn1ccnc1C(NCc1ccccc1)c1ccc(F)cc1 (stereo not drawn),> 100,
c1nnc(Nc2cncc(C3CCCN3)n2)s1 (stereo not drawn),6.43,
CCNc1ncc(C(=O)NCc2ccc3nsnc3c2)cn1,> 100,
CC(CCSc1ccccc1)N1CCN(C(=O)c2cccs2)CC1 (stereo not drawn),> 100,
CCOc1cccc2c1OCC(C(=O)NS(=O)(=O)c1c(C)noc1C)=C2,69.3,pIC50 [1]: < 4
Cc1cc(-c2cnc(N3CCCCCC3)nc2-c2cccnc2C)on1,68.5,pIC50 [1]: 4.097
COc1ccccc1C(C)N(C)Cc1nc2c(cnn2C)c(=O)[nH]1 (stereo not drawn),> 100,

SMILES,IC50 [1] [µM],other results
CSc1ccc(CNC(c2ccccc2F)c2nccn2C)cc1 (stereo not drawn),16.4,
Cc1ccc(CN(CCCn2ccnc2)Cc2c(F)cccc2F)s1.O=C(O)CC(O)(CC(=O)O)C(=O)O,23.6,pIC50 [1]: 4.654
O=C(NCC(O)c1ccsc1)Nc1cccs1 (stereo not drawn),67.5,
Nc1cc(-c2cccs2)nn(CC(=O)NCC2CCCCC2)c1=O,> 100,
O=C(CCC(=O)N1CCC(c2noc3cc(F)ccc23)CC1)NC1CC1,> 100,
Cc1ccccc1C1CCN(CCn2cc(-c3cccc(O)c3)nn2)C1 (stereo not drawn),78.7,
O=C(Cc1c[nH]c2ccccc12)N1CCC(Nc2ccccc2)CC1,> 100,
Cc1cc(NCc2ccccc2)nc2[nH]nc(N)c12,79.8,
O=C(c1cc2cc(I)ccc2[nH]1)N1CCC(Nc2cccnn2)CC1,48.7,
O=C(NCCC(O)c1ccoc1)Nc1cccs1 (stereo not drawn),> 100,
Cc1cc(N2CCOCC2)ccc1NC(C)c1nc(C(C)C)no1 (stereo not drawn),> 100,
Cc1cccn2cc(CN3CCCC(c4noc(C5CC5)n4)C3)nc12 (stereo not drawn),46.5,
CSc1nccc(-c2cccc(-c3ccn(CC4COCCO4)n3)c2)n1 (stereo not drawn),40.3,
COc1cc(C(=O)Nc2nc(C)no2)cc(OC)c1Br,21,pIC50 [1]: 4.518
COc1ccc(OCc2cc(C(=O)N3CCCCO3)n[nH]2)c(Cl)c1,> 100,
c1ccc(CCN2CCCC2c2cncc(Nc3nncs3)n2)cc1 (stereo not drawn),25.5,
CCOc1cccc(COC(=O)c2cscn2)n1,> 100,
COCCN(C)c1ccc(NCc2ccsc2)nc1,> 100,
CC(=O)N1CCC[C@@H](NCc2c[nH]c3ccccc23)[C@@H]1c1ccc(C)s1,> 100,
CC(C)C1CCCN1CCCc1nc(-c2cccs2)no1 (stereo not drawn),> 100,
CCCN1CCC(c2cc(CCOc3ccc(C(F)(F)F)cc3)[nH]n2)C1 (stereo not drawn),,pIC50 [1]: < 4 and 4.339
Cc1ccccc1OC1CCN(CC(=O)Nc2cn(C)nc2C)CC1,> 100,
CC(Cn1cccn1)NCc1csc(COc2ccc(F)cc2)n1 (stereo not drawn),17.2,
Cc1noc(NC(=O)c2ccccc2)n1,62.6,pIC50 [1]: 4.405

SMILES,IC50 [1] [µM],other results
COc1cc(C2Nc3cc(Cl)ccc3C3=NCCN32)ccc1O (stereo not drawn),> 100,
CCOc1ccccc1-c1cc(N)[nH]n1,26.4,
CCC(=O)N1CCN(C(=O)Cn2cccn2)CC1,22.2,
CCCn1cc(-c2ccnc(NC3CCCc4ccccc43)n2)c(C)n1 (stereo not drawn),21.4,
O=C(Nc1ccnc2ccnn12)c1ccc(N2CCC(O)CC2)cc1,74.1,
Cc1ccsc1CN(c1nc(CCN)nc2ccccc12)C1CC1,49.6,
Cc1[nH]ccc1C(=O)N1CCOCC12CCCC2,> 100,
COc1ccc2c(c1)OCC(CNc1cc(N)nc(SC)n1)C2 (stereo not drawn),62.6,
COc1ccc(N2CCC(NCc3csc(C(C)C)n3)CC2)cc1,> 100,
NCC1CCC(c2c(C(=O)NCCO)sc3ccccc23)CC1 (stereo not drawn),> 100,
Cc1cc(-c2cnc(NCc3ccccn3)nc2C(C)C)on1,> 100,
O=C1CO[C@H]2CN(Cc3cccc4[nH]ccc34)C[C@@H]2N1C1CCOCC1,> 100,pIC50 [1]: 4.298
COc1cccc(S(=O)(=O)NC(=O)CCC2CCCC2)c1,> 100,
c1ccc2nc(CN3CCCC3c3noc(C4CC4)n3)ccc2c1 (stereo not drawn),23.8,
COc1cccc(C(NCc2ccc(SC)cc2)c2nccn2C)c1 (stereo not drawn),6.39,
c1ccc(-c2nc(CN3CCCC(Cn4cncn4)C3)cs2)cc1 (stereo not drawn),54.6,
COc1ccccc1CN1CCc2c(nc(-c3ccccn3)[nH]c2=O)C1,3.35,
Cc1cc(Nc2ccc(F)cn2)cc(C2CCN(Cc3ncc[nH]3)C2)n1 (stereo not drawn),> 100,
COCCCNC(=O)CN(C)C(=O)c1cc(Cl)ccc1O,87.8,pIC50 [1]: < 4
O=S(=O)(Nc1cnc(N2CCCC2)nc1)c1ccc(OC(F)(F)F)cc1,> 100,
Cc1ccc(CNC(c2ccccc2)c2nccn2C)cc1 (stereo not drawn),19.9,
Cc1cnn(CC2CCCN2Cc2nc3ccccc3c(=O)[nH]2)c1 (stereo not drawn),17.9,
Cc1cnc(NC(=O)c2csc(NCC(C)C)n2)s1,1.99,
Cc1cc(C)n(CC2CCCN2CC(=O)Nc2cc(C(C)C)no2)n1 (stereo not drawn),,pIC50 [1]: 4.348 and 4.706

SMILES,IC50 [1] [µM],other results
CCn1nc(C)c(CNC(=O)c2nnc3ccc(Cl)cc3n2)c1C,17.3,
Cn1ccnc1C(NCc1ccc(Br)cc1)c1ccccc1 (stereo not drawn),17.7,
CC(C)c1nc(N2CCC(N3CCCCCC3)CC2)c2cnn(C)c2n1,52.5,
CC1(c2ccccc2)CCCN(Cc2cncn2C2CC2)C1 (stereo not drawn),45.7,
COc1ccc(CNC(Cc2ccsc2)c2ncccc2C)cc1OC (stereo not drawn),> 49,
Cc1ccc(C(C)N(C)Cc2nc3c(cnn3C)c(=O)[nH]2)s1 (stereo not drawn),> 100,
Cn1ccnc1-c1nc(NC2CCCC2)ncc1-c1cccc(F)c1,40.3,
Cc1cc(O)cc(=O)n1CCCC(=O)Nc1n[nH]c2cc(Br)ccc12,> 100,
c1cc(CN2CCCCC2c2ccc(Nc3cnccn3)nc2)ccn1 (stereo not drawn),,pIC50 [1]: < 4 and < 4.31
CCC(CN1CCOCC1)n1cncc1-c1ccc2c(c1)CCN2CC (stereo not drawn),98.5,
Cc1cc2ccccc2n1CCC(=O)N1CCN(C)CC1C(N)=O (stereo not drawn),> 100,
COc1cccc(CN2CCCC2c2cncc(Nc3nncs3)n2)c1 (stereo not drawn),26.9,
CSc1ccc(CNC(c2ccc(F)cc2)c2nccn2C)cc1 (stereo not drawn),32.5,
Cc1c(CN(C)c2cc(C3CCCNC3)ncn2)[nH]c2ccccc12 (stereo not drawn),> 100,
COC(=O)[C@H](CCSC)NC(=O)Cn1ccc2c(Cl)cccc21,70.7,
CN(C)S(=O)(=O)N1CCCCCC1c1cc(-c2ccc(F)cc2)no1 (stereo not drawn),> 100,pIC50 [1]: 4.075
CCOc1cccc2c1OCC(=O)N(c1ccc(N(C)C)cc1)C2,44.1,
Cc1cc(NCc2ccco2)nc2[nH]nc(N)c12,> 100,
Cn1c(CCN2CCN(CCc3ccccc3)CC2)nc2ccccc21,> 100,
CCN1c2ccc(-c3cncn3CC(=O)NC(C)(C)C)cc2CC1C (stereo not drawn),> 100,
